Laboratory results from patent US7989460B2, “Quinazoline derivatives as angiogenesis inhibitors” (AstraZeneca AB, priority 2003, dated 2011).

Tests used:
[1] = target: T1, KDR (Homo sapiens, UniProt P35968); assay: In vitro receptor tyrosine kinase inhibition test (a), enzyme assay against KDR; type: biochemical; settings: KDR cytoplasmic domain
T1 construct: made in house; host or cells: insect cells (Spodoptera frugiperda Sf21, baculovirus)
Source text: (a) In Vitro Receptor Tyrosine Kinase Inhibition Test
This assay determines the ability of a test compound to inhibit tyrosine kinase activity. DNA encoding VEGF, FGF or EGF receptor cytoplasmic domains may be obtained by total gene synthesis (Edwards M, International Biotechnology Lab 5(3), 19-25, 1987) or by cloning. These may then be expressed in a suitable expression system to obtain polypeptide with tyrosine kinase activity. […] In the case of the VEGF receptor Flt-1 (Genbank accession number X51602), a 1.7 kb DNA fragment encoding most of the cytoplasmic domain, commencing with methionine 783 and including the termination codon, described by Shibuya et al (Oncogene, 1990, 5: 519-524), was isolated from cDNA and cloned into a baculovirus transplacement vector (for example pAcYM1 (see The Baculovirus Expression System: A Laboratory Guide, L. A. King and R. D. Possee, Chapman and Hall, 1992) or pAc360 or pBlueBacHis (available from Invitrogen Corporation)). This recombinant construct was co-transfected into insect cells (for example Spodoptera frugiperda 21(5f21)) with viral DNA (eg Pharmingen BaculoGold) to prepare recombinant baculovirus. […]

[2] = target: T2, human ether-a-go-go-related-gene (hERG)-encoded potassium channel (Homo sapiens, UniProt Q12809); assay: hERG-encoded potassium channel inhibition test (d); type: cell-based; settings: HEK cells expressing hERG-encoded channel, tail current, whole cell patch clamp
T2 construct: expressed in transfected cells; host or cells: Human embryonic kidney (HEK) cells
T2 sequence (Q12809 whole entry): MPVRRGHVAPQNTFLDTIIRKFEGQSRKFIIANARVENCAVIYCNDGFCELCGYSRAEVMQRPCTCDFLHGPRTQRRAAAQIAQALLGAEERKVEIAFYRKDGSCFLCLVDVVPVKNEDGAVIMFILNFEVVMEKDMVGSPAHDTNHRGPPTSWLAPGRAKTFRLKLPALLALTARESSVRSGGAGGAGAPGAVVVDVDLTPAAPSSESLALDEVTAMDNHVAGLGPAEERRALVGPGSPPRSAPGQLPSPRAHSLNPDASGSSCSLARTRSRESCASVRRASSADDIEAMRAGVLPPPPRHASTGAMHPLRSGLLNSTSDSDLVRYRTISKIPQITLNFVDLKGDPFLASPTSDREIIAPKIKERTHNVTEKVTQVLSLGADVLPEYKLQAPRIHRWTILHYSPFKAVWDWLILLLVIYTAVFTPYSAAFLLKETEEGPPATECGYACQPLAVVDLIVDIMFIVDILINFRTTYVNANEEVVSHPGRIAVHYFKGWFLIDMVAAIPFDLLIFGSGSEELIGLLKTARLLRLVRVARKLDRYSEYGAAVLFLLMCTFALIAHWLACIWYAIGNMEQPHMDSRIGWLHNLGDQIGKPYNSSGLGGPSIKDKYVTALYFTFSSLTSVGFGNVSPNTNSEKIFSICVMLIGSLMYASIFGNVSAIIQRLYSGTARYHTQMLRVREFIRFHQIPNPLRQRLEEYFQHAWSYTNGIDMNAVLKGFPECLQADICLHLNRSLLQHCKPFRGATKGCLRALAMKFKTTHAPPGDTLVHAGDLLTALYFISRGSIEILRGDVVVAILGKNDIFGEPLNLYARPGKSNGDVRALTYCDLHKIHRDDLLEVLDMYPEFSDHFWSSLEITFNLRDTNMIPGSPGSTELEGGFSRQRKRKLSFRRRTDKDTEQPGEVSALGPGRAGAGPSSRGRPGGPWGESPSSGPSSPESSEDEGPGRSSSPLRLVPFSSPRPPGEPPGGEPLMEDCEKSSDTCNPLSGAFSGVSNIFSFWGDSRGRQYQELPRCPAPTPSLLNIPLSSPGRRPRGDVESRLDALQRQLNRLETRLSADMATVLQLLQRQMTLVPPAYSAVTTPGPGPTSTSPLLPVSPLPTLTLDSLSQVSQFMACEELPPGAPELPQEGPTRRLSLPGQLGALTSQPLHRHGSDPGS
Protocol: d) hERG-encoded Potassium Channel Inhibition Test
This assay determines the ability of a test compound to inhibit the tail current flowing through the human ether-a-go-go-related-gene (hERG)-encoded potassium channel.
Human embryonic kidney (HEK) cells expressing the hERG-encoded channel were grown in Minimum Essential Medium Eagle (EMEM; Sigma-Aldrich catalogue number M2279), supplemented with 10% Foetal Calf Serum (Labtech International; product number 4-101-500), 10% M1 serum-free supplement (Egg Technologies; product number 70916) and 0.4 mg/ml Geneticin G418 (Sigma-Aldrich; catalogue number G7034). […]
For each cell recorded, a glass coverslip containing the cells was placed at the bottom of a Perspex chamber containing bath solution (see below) at ambient temperature ([…]). […]
The cell was recorded in the whole cell configuration of the patch clamp technique. […]
The amplitude of the hERG-encoded potassium channel tail current following the step from +40 mV to −50 mV was recorded on-line by Clampex software (Axon Instruments). […]
The effect of each concentration of test compound was quantified by expressing the tail current amplitude in the presence of a given concentration of test compound as a percentage of that in the presence of vehicle. […]

T1 sequence (P35968 786-1356 limits assumed): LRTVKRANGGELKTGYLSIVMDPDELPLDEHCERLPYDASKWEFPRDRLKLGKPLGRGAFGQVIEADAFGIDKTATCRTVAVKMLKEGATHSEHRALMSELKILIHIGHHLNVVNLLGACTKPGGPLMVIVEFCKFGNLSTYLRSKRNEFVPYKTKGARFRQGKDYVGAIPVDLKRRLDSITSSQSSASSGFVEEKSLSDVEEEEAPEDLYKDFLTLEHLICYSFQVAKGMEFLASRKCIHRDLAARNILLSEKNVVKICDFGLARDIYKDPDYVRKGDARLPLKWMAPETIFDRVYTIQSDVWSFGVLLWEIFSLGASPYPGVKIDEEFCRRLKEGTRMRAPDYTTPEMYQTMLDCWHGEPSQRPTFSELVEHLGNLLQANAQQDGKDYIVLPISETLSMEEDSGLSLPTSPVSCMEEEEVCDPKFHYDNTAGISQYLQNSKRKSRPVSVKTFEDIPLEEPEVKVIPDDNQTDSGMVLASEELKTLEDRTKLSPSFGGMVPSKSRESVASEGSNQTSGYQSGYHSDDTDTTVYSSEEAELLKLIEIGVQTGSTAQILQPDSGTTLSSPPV

- IC50 [1]: 0.104 µM
SMILES: COc1cc2c(Oc3ccc4[nH]c(C)c(C)c4c3)ncnc2cc1OCCN1CCN(CC(C)=O)CC1 [Example 11, 7-{2-[4-(acetylmethyl)piperazin-1-yl]ethoxy}-4-[(2,3-dimethyl-1H-indol-5-yl)oxy]-6-methoxyquinazoline]
- IC50 [2]: 10.1 µM
